The values below come from the NIST ThermoML archive (doi:10.1016/j.fluid.2006.07.015).

Numbers after ± are expanded uncertainties.

One data set is described as follows: activity coefficient (dimensionless); of the first substance listed, at infinite dilution; xn = mol fraction of the nth substance listed. The settings on record: 373.15 K; 101 kPa; Liquid; Chromatography; x1 = 0.
Consider `C=CCCCCCC` [oct-1-ene] + CCCCCCCCCCCCCCCCCCC(CCCCCCCCCCCCCCCCCC)CCCCC(CCCCCCCCCCCCCCCCCC)CCCCCCCCCCCCCCCCCC, for which the activity coefficient is 0.374 ± 0.034.

For `CCCCCCCC` [octane] + CCCCCCCCCCCCCCCCCCC(CCCCCCCCCCCCCCCCCC)CCCCC(CCCCCCCCCCCCCCCCCC)CCCCCCCCCCCCCCCCCC, the activity coefficient is 0.38 ± 0.034.

Consider `CCCCC` [pentane] + CCCCCCCCCCCCCCCCCCC(CCCCCCCCCCCCCCCCCC)CCCCC(CCCCCCCCCCCCCCCCCC)CCCCCCCCCCCCCCCCCC, for which the activity coefficient was 0.336 ± 0.035.

For `CCCCCc1ccccc1` [pentylbenzene] + CCCCCCCCCCCCCCCCCCC(CCCCCCCCCCCCCCCCCC)CCCCC(CCCCCCCCCCCCCCCCCC)CCCCCCCCCCCCCCCCCC, the activity coefficient worked out at 0.378 ± 0.034.

Regarding `CCCc1ccccc1` [propylbenzene] + CCCCCCCCCCCCCCCCCCC(CCCCCCCCCCCCCCCCCC)CCCCC(CCCCCCCCCCCCCCCCCC)CCCCCCCCCCCCCCCCCC, the activity coefficient is 0.336 ± 0.035.

With `CCCCCCCCCCCCCC` [tetradecane] + CCCCCCCCCCCCCCCCCCC(CCCCCCCCCCCCCCCCCC)CCCCC(CCCCCCCCCCCCCCCCCC)CCCCCCCCCCCCCCCCCC, the activity coefficient stood at 0.492 ± 0.033.

Take `Cc1ccccc1` [toluene] + CCCCCCCCCCCCCCCCCCC(CCCCCCCCCCCCCCCCCC)CCCCC(CCCCCCCCCCCCCCCCCC)CCCCCCCCCCCCCCCCCC: the activity coefficient stood at 0.284 ± 0.036.

For the molecule `C[C@@H]1CCCC[C@H]1C` [trans-1,2-dimethylcyclohexane] + CCCCCCCCCCCCCCCCCCC(CCCCCCCCCCCCCCCCCC)CCCCC(CCCCCCCCCCCCCCCCCC)CCCCCCCCCCCCCCCCCC, the activity coefficient was found to be 0.28 ± 0.036.

As for `C[C@H]1CC[C@H](C)CC1` [trans-1,4-dimethylcyclohexane] + CCCCCCCCCCCCCCCCCCC(CCCCCCCCCCCCCCCCCC)CCCCC(CCCCCCCCCCCCCCCCCC)CCCCCCCCCCCCCCCCCC, the activity coefficient stood at 0.288 ± 0.036.

On to `C1CC[C@@H]2CCC[C@H]2C1` [trans-bicyclo[4.3.0]nonane] + CCCCCCCCCCCCCCCCCCC(CCCCCCCCCCCCCCCCCC)CCCCC(CCCCCCCCCCCCCCCCCC)CCCCCCCCCCCCCCCCCC, for which the activity coefficient was found to be 0.267 ± 0.036.

In the case of `C1CC[C@H]2CCCC[C@@H]2C1` [trans-decahydronaphthalene] + CCCCCCCCCCCCCCCCCCC(CCCCCCCCCCCCCCCCCC)CCCCC(CCCCCCCCCCCCCCCCCC)CCCCCCCCCCCCCCCCCC, the activity coefficient is 0.268 ± 0.036.

With `CCCCCCCCCCCCC` [tridecane] + CCCCCCCCCCCCCCCCCCC(CCCCCCCCCCCCCCCCCC)CCCCC(CCCCCCCCCCCCCCCCCC)CCCCCCCCCCCCCCCCCC, the activity coefficient was determined as 0.479 ± 0.033.

For `CCCCCCCCCCC` [undecane] + CCCCCCCCCCCCCCCCCCC(CCCCCCCCCCCCCCCCCC)CCCCC(CCCCCCCCCCCCCCCCCC)CCCCCCCCCCCCCCCCCC, the activity coefficient is 0.436 ± 0.033.

Still in this data set, the particulars now being: 388.15 K; 101 kPa; Liquid; Chromatography; x1 = 0.
For `C=CCCCCCC` [oct-1-ene] + CCCCCCCCCCCCCCCCCCC(CCCCCCCCCCCCCCCCCC)CCCCC(CCCCCCCCCCCCCCCCCC)CCCCCCCCCCCCCCCCCC, the activity coefficient came to 0.374 ± 0.034.

As for `CCCCCCCC` [octane] + CCCCCCCCCCCCCCCCCCC(CCCCCCCCCCCCCCCCCC)CCCCC(CCCCCCCCCCCCCCCCCC)CCCCCCCCCCCCCCCCCC, the activity coefficient was determined as 0.381 ± 0.034.

Take `CCCCC` [pentane] + CCCCCCCCCCCCCCCCCCC(CCCCCCCCCCCCCCCCCC)CCCCC(CCCCCCCCCCCCCCCCCC)CCCCCCCCCCCCCCCCCC: the activity coefficient was 0.338 ± 0.035.

`CCCCCc1ccccc1` [pentylbenzene] + CCCCCCCCCCCCCCCCCCC(CCCCCCCCCCCCCCCCCC)CCCCC(CCCCCCCCCCCCCCCCCC)CCCCCCCCCCCCCCCCCC: the activity coefficient was determined as 0.385 ± 0.034.

In the case of `CCCc1ccccc1` [propylbenzene] + CCCCCCCCCCCCCCCCCCC(CCCCCCCCCCCCCCCCCC)CCCCC(CCCCCCCCCCCCCCCCCC)CCCCCCCCCCCCCCCCCC, the activity coefficient worked out at 0.339 ± 0.035.

`CCCCCCCCCCCCCC` [tetradecane] + CCCCCCCCCCCCCCCCCCC(CCCCCCCCCCCCCCCCCC)CCCCC(CCCCCCCCCCCCCCCCCC)CCCCCCCCCCCCCCCCCC: the activity coefficient was 0.493 ± 0.033.

In the case of `Cc1ccccc1` [toluene] + CCCCCCCCCCCCCCCCCCC(CCCCCCCCCCCCCCCCCC)CCCCC(CCCCCCCCCCCCCCCCCC)CCCCCCCCCCCCCCCCCC, the activity coefficient is 0.284 ± 0.036.

Turning to `C[C@@H]1CCCC[C@H]1C` [trans-1,2-dimethylcyclohexane] + CCCCCCCCCCCCCCCCCCC(CCCCCCCCCCCCCCCCCC)CCCCC(CCCCCCCCCCCCCCCCCC)CCCCCCCCCCCCCCCCCC, the activity coefficient was 0.287 ± 0.036.

As for `C[C@H]1CC[C@H](C)CC1` [trans-1,4-dimethylcyclohexane] + CCCCCCCCCCCCCCCCCCC(CCCCCCCCCCCCCCCCCC)CCCCC(CCCCCCCCCCCCCCCCCC)CCCCCCCCCCCCCCCCCC, the activity coefficient is 0.295 ± 0.036.

In the case of `C1CC[C@@H]2CCC[C@H]2C1` [trans-bicyclo[4.3.0]nonane] + CCCCCCCCCCCCCCCCCCC(CCCCCCCCCCCCCCCCCC)CCCCC(CCCCCCCCCCCCCCCCCC)CCCCCCCCCCCCCCCCCC, the activity coefficient was determined as 0.278 ± 0.036.

As to `C1CC[C@H]2CCCC[C@@H]2C1` [trans-decahydronaphthalene] + CCCCCCCCCCCCCCCCCCC(CCCCCCCCCCCCCCCCCC)CCCCC(CCCCCCCCCCCCCCCCCC)CCCCCCCCCCCCCCCCCC, the activity coefficient worked out at 0.279 ± 0.036.

For `CCCCCCCCCCCCC` [tridecane] + CCCCCCCCCCCCCCCCCCC(CCCCCCCCCCCCCCCCCC)CCCCC(CCCCCCCCCCCCCCCCCC)CCCCCCCCCCCCCCCCCC, the activity coefficient turned out to be 0.479 ± 0.033.

Take `CCCCCCCCCCC` [undecane] + CCCCCCCCCCCCCCCCCCC(CCCCCCCCCCCCCCCCCC)CCCCC(CCCCCCCCCCCCCCCCCC)CCCCCCCCCCCCCCCCCC: the activity coefficient came out at 0.438 ± 0.033.

The same data set, now with this note: 403.15 K; 101 kPa; Liquid; Chromatography; x1 = 0.
With `C=CCCCCCC` [oct-1-ene] + CCCCCCCCCCCCCCCCCCC(CCCCCCCCCCCCCCCCCC)CCCCC(CCCCCCCCCCCCCCCCCC)CCCCCCCCCCCCCCCCCC, the activity coefficient turned out to be 0.374 ± 0.034.

On to `CCCCCCCC` [octane] + CCCCCCCCCCCCCCCCCCC(CCCCCCCCCCCCCCCCCC)CCCCC(CCCCCCCCCCCCCCCCCC)CCCCCCCCCCCCCCCCCC, for which the activity coefficient amounted to 0.382 ± 0.034.

With `CCCCC` [pentane] + CCCCCCCCCCCCCCCCCCC(CCCCCCCCCCCCCCCCCC)CCCCC(CCCCCCCCCCCCCCCCCC)CCCCCCCCCCCCCCCCCC, the activity coefficient came to 0.341 ± 0.035.

`CCCCCc1ccccc1` [pentylbenzene] + CCCCCCCCCCCCCCCCCCC(CCCCCCCCCCCCCCCCCC)CCCCC(CCCCCCCCCCCCCCCCCC)CCCCCCCCCCCCCCCCCC: the activity coefficient is 0.381 ± 0.034.

For the molecule `CCCc1ccccc1` [propylbenzene] + CCCCCCCCCCCCCCCCCCC(CCCCCCCCCCCCCCCCCC)CCCCC(CCCCCCCCCCCCCCCCCC)CCCCCCCCCCCCCCCCCC, the activity coefficient amounted to 0.336 ± 0.035.

On to `CCCCCCCCCCCCCC` [tetradecane] + CCCCCCCCCCCCCCCCCCC(CCCCCCCCCCCCCCCCCC)CCCCC(CCCCCCCCCCCCCCCCCC)CCCCCCCCCCCCCCCCCC, for which the activity coefficient came out at 0.494 ± 0.033.

For `Cc1ccccc1` [toluene] + CCCCCCCCCCCCCCCCCCC(CCCCCCCCCCCCCCCCCC)CCCCC(CCCCCCCCCCCCCCCCCC)CCCCCCCCCCCCCCCCCC, the activity coefficient was found to be 0.282 ± 0.036.
